The assay concerns renin. Briefly: renin inhibitory activity, in vitro test (as described in US-A-4880781 and EP-A-0 173 481, pages 103-105). The format is biochemical. The settings on record: at 10⁻⁸M; printed under the heading IC₅₀(M). The method, then:
In the examples below, the renin inhibitory activity of the compounds of the present invention (IC₅₀'s) are determined using the in vitro test described in US-A-4880 781 (U.S. patent application, Serial No. 07/147,073, filed 20 January 1988), and in EP-A-0 173 481, published 5 March 1986, pages 103-105, which are hereby incorporarted by reference.

Where a name gives a salt, the structure may show the parent alone.

For the compound `COc1ccc(C[C@H](NC(=O)[C@@H]2CCCN2C(=O)CC[C@H](N)C(=O)O)C(=O)N[C@@H](Cc2c[nH]cn2)C(=O)N[C@@H](CC2CCCCC2)[C@@H](O)[C@@H](O)CC(C)(C)N)cc1` [Example 7, L-Arabino-heptitol6-amino-1,2,5,6,7-pentadeoxy-1-cyclohexyl-2-[[N-[N-(1-L-γ-glutamyl-L-prolyl)-O-methyl-L-tyrosyl]-L-histidyl]-amino]-6-methyl-, tris(trisluoroacetate) salt], the inhibition worked out at 34%.

What is called inhibition is the share of the control response that was lost under treatment. A low value points to little suppression.

These data come from patent EP0483271B1, “PEPTIDES CONTAINING DIAMINO-GLYCOLS AS TRANSITION-STATE MIMICS” (THE UPJOHN COMPANY, priority 1989, dated 1993).
